In a melting point compilation (Tetko et al.) one finds melting point data, which are given here for 122 molecules.

SMILES strings stand for the structures.

As usually defined, the melting point is the temperature of the solid-liquid transition.

Molecule `Cc1c[nH]c(=O)n1-c1cccc([N+](=O)[O-])c1` displayed a melting point of 201 to 203 °C.
As for `Oc1ccc2ccccc2c1CN1CCOCC1`, the figure is 52 to 54 °C.
As for `Cc1cccn2c(=O)c(C(=O)O)cnc12`, the figure is 205 to 207 °C; as for `CCN(CC)S(=O)(=O)c1ccc(N2CCOCC2)c(N)c1`, 94 to 96 °C.
As for `COCCN(C(C)=O)c1nc(CCl)cs1`, the figure is 98 to 100 °C; as for `O=C(CCC1CCCCC1)Nc1ccc(C(=O)O)c(O)c1`, 209 to 211 °C.
Consider `Nc1ccc(F)cc1Nc1ccccc1F`, for which the melting point was 53 to 55 °C.
`Cc1ccc(C)n1-c1ccsc1C(=O)O` returned a melting point of 185 to 187 °C.
Take `O=C(O)CS(=O)(=O)Cc1cccs1`: the melting point fell in the range of 107 to 109 °C.
In the case of `O=C(O)c1cc(OCC2CC2)c2ccccc2n1` it was 164 to 166 °C.
For `Cc1nn(-c2ccccc2)c(Oc2ccccc2)c1C=O`, the melting point is 92 to 94 °C.
As for `CN1CCN(c2cc(CN)ccn2)CC1`, the figure is 72 to 74 °C.
As for `O=C(O)c1cnn(-c2ccccn2)c1`, the figure is 186 to 188 °C; as for `COc1ccc(N2CC(C(=O)O)CC2=O)c(OC)c1` (configuration not stated), 183 to 185 °C.
As for `CC1CCCC(O)(CN)C1` (configuration not stated), the figure is 59 to 61 °C; as for `COc1ccc(-n2c(S)nc3sc4c(c3c2=O)CCCC4)cc1`, 312 to 314 °C; as for `O=C(O)c1csc(S(=O)(=O)N2CCc3ccccc3C2)c1`, 232 to 234 °C.
The molecule `Cn1c(=O)cc(C(=O)O)c2ccccc21` gave a melting point of 250 to 252 °C.
As for `O=C(O)c1ccc(S(=O)(=O)C2CCCC2)cc1`, the figure is 199 to 201 °C; as for `COCc1ccc(CNC(=O)CCl)cc1`, 83 to 85 °C; as for `CCS(=O)(=O)N(C)CC(=O)O`, 70 to 72 °C.
In the case of `CCN(CC)S(=O)(=O)c1cccc(N)c1` it was 84 to 86 °C; in that of `O=C1CN=C(S)N1Cc1ccccc1`, less than 17 °C.
As for `CC(C)(C)c1ccc(-c2cc(N)on2)cc1`, the figure is 148 to 150 °C.
`CC(C)Oc1cc(Br)cc(C(=O)O)c1` came in with a melting point of 126 to 128 °C.
`CN(C)S(=O)(=O)c1ccc(CCl)o1` gave a melting point of 54 to 56 °C.
In the case of `Cc1cc(S(N)(=O)=O)c(C)cc1Br`, the melting point lay in the range of 207 to 209 °C.
In the case of `Cc1cc(C)cc(NC(=O)CCl)c1` it was 141 to 143 °C; in that of `O=C(O)C1CCN(C(=O)C2CC2)CC1`, 211 to 213 °C.
As for `NCC1CCN(C(=O)c2ccccc2)CC1`, the figure is 70 to 72 °C.
In the case of `O=C(O)c1cn(-c2ccccc2C(F)(F)F)nn1` it was 129 to 131 °C; in that of `Cc1[nH]c2ccc(Oc3ccccc3)cc2c(=O)c1C`, 289 to 291 °C.
As to `CC(O)C1NC(=O)NC1=O` (configuration not stated), the melting point is 179 to 181 °C.
As for `COC(=O)C(=O)CC(=O)c1ccc(OC)cc1F`, the figure is 101 to 103 °C; as for `O=C(CCl)NCc1ccco1`, 81 to 83 °C.
`COCCCn1c(S)nc2ccccc2c1=O`: the melting point fell in the range of 180 to 182 °C.
In the case of `OCCOC1CCNCC1` it was 61 to 63 °C; in that of `O=C(O)c1csc(-c2ccco2)n1`, 181 to 183 °C; in that of `CC(C)(C)OC(=O)NCC(=O)NN`, 79 to 81 °C.
As to `O=C(Nc1ccc(C(=O)O)c(O)c1)c1cc(F)cc(F)c1`, the melting point lay in the range of 269 to 271 °C.
The molecule `O=C(O)CN(Cc1ccccc1)Cc1ccccc1` came in with a melting point of 195 to 197 °C.
In the case of `O=C(O)c1cc([N+](=O)[O-])c(Br)cc1F` it was 152 to 154 °C; in that of `CCNC(=O)CN(CC)C(=O)CCl`, 246 to 248 °C.
For the molecule `OCc1nccn1CC(F)(F)F`, the melting point was in the range of 89 to 91 °C.
As for `Cc1ncc(C(=O)O)c(C(C)C)n1`, the figure is 168 to 170 °C; as for `NCC(O)COc1ccc(F)cc1` (configuration not stated), 71 to 73 °C.
As for `O=C(O)c1cc(S(=O)(=O)N2CCOCC2)c(Cl)cc1Cl`, the figure is 183 to 185 °C; as for `COc1ccc2c(c1)NC(=O)CO2`, 157 to 159 °C; as for `Nc1c(Cl)ncnc1-n1cccn1`, 110 to 112 °C.
As for `ON=C1CCN(Cc2ccccn2)CC1`, the figure is 61 to 63 °C; as for `Cc1cc(Cl)n2ncnc2n1`, 220 to 222 °C.
On to `CSc1c[nH]nc1N`, for which the melting point lay in the range of 76 to 78 °C.
`CN(C)C(=O)Sc1cnc2nc(C#N)c(C#N)n2c1` showed a melting point of 180 to 182 °C.
`CC(=NO)c1ccc(OCc2ccccc2C)cc1` displayed a melting point of 153 to 155 °C.
In the case of `NC(=O)Cc1ccc(Br)cc1` it was 194 to 196 °C.
In the case of `COc1ccc(C(=O)NC(C(=O)O)C(C)C)cc1` (configuration not stated) it was 163 to 165 °C; in that of `Cc1cc(OC(C)C(=O)O)ccc1C(C)C` (configuration not stated), 92 to 94 °C; in that of `CC(C)C(N)=S`, 42 to 44 °C.
In the case of `CC1(c2ccccc2)CC(=O)NC1=O` (configuration not stated) it was 79 to 81 °C; in that of `NCC1(C(N)=O)CCOCC1`, 113 to 115 °C; in that of `CN(C)S(=O)(=O)c1ccc(C(=O)O)cc1Br`, 185 to 187 °C.
Turning to `O=C(CCc1ccccc1)Cc1ccccc1`, the melting point was in the range of 41 to 43 °C.
Turning to `CC(C)(C)OC(=O)Nc1ccc(F)cc1N`, the melting point lay in the range of 131 to 133 °C.
In the case of `COC(=O)CSc1cncc(Cl)n1` it was 32 to 34 °C; in that of `CCCOC(=O)c1ccc(S(=O)(=O)Cl)cc1`, 36 to 38 °C; in that of `COc1ccc(C=C[N+](=O)[O-])cc1Cl`, 95 to 97 °C.
In the case of `COc1ccc(N)cc1OCC(F)(F)F` it was 154 to 156 °C.
Take `Cc1cnoc1C(=O)O`: the melting point lay in the range of 133 to 135 °C.
As for `CCc1cc(N)c2cc(N)ccc2n1`, the figure is 151 to 153 °C; as for `O=C1Nc2ccccc2C1=NO`, 242 to 244 °C; as for `N#Cc1ccc(C(=O)N2CCOCC2)cc1`, 144 to 146 °C.
As for `CC(N)c1ccc(N2CCOCC2)cc1` (configuration not stated), the figure is 61 to 63 °C; as for `O=C(O)C1CCCN1c1ncc(C(F)(F)F)cc1Cl` (configuration not stated), 99 to 101 °C.
As for `Cc1c(C(=O)O)cnn1-c1ccccc1Cl`, the figure is 149 to 151 °C.
With `O=C(O)c1cc(C2CC2)nc2onc(-c3ccccc3)c12`, the melting point is 213 to 215 °C.
As for `CCc1ccc(-c2noc(S)n2)cc1`, the figure is 159 to 161 °C; as for `Nc1ccnn1Cc1ccccc1`, 82 to 84 °C.
As for `CCOC(=O)Cn1cc(Br)ccc1=O`, the figure is 81 to 83 °C; as for `Cc1nc(N)nc(Cl)c1Br`, 189 to 191 °C.
As for `Cc1cccc(C2(C(=O)O)CCCCC2)c1`, the figure is 141 to 143 °C; as for `CC(CC(N)=NO)N(C)C(=O)OC(C)(C)C` (configuration not stated), 102 to 104 °C.
Take `O=C(O)c1ccc(Br)c(O)c1`: the melting point is 219 to 221 °C.
In the case of `O=c1oc2ccccc2c(Cl)c1[N+](=O)[O-]` it was 160 to 162 °C; in that of `COC(=O)c1ccc(-n2cc(C)cn2)c(N)c1`, 136 to 138 °C.
`CCOc1ccc(C(=O)c2ccccc2Cl)cc1`: the melting point lay within 86 to 88 °C.
As for `COC(=O)c1cc(Cl)cc(S(=O)(=O)Cl)c1`, the figure is 50 to 52 °C.
In the case of `Cc1ccccc1C(N)CC(=O)O` (configuration not stated) it was 225 to 227 °C; in that of `O=C(O)CCCNC(=O)c1ccc(Cl)cc1`, 108 to 110 °C.
In the case of `Cn1c(CO)nc2ccccc21` it was 144 to 146 °C.
`Cc1cccc(C=C(C(=O)O)c2cccs2)c1` yielded a melting point of 158 to 160 °C.
As for `COc1ccc(Br)c(-c2nnc(CCC(=O)O)o2)c1`, the figure is 116 to 118 °C; as for `O=Cc1cccc2cn[nH]c12`, 121 to 123 °C; as for `O=C(O)COc1ccc2c(c1)CCC2`, 154 to 156 °C.
As for `Cc1cc(C(=O)O)cc(S(=O)(=O)Cl)c1Cl`, the figure is 209 to 211 °C; as for `NC(=O)Cn1cnc2cc(C(=O)O)ccc21`, 298 to 300 °C; as for `Cc1cc(N)n(C(=O)OC(C)(C)C)n1`, 135 to 137 °C.
As for `CN(C)C=Nc1[nH]ncc1C#N`, the figure is 159 to 161 °C; as for `Cc1ccc(C(=O)N(C)c2ccc(O)cc2)cc1`, 115 to 117 °C; as for `Nc1ccc(CCN2CCSCC2)cc1`, 88 to 90 °C.
Regarding `Cc1ccc(/C=C/S(=O)(=O)Cl)cc1`, the melting point is 111 to 113 °C.
The molecule `O=C(O)c1ccc(Oc2ccccc2Br)nc1` displayed a melting point of 182 to 184 °C.
In the case of `Cc1sc(C(=O)O)cc1-c1ccc(F)cc1` it was 156 to 158 °C; in that of `CC(C)(C)NC(=O)CN1CCN(CC(N)=S)CC1`, 148 to 152 °C; in that of `CN(C)S(=O)(=O)c1cc(C(=O)O)ccc1F`, 199 to 201 °C.
In the case of `Cc1sc2nc(C)n(N)c(=O)c2c1C` it was 204 to 206 °C.
In the case of `Nc1cccc(S(=O)(=O)Nc2ccccc2)c1` it was 127 to 129 °C.
For `O=S1(=O)CC(O)C(S(=O)(=O)Cl)C1` (configuration not stated), the melting point was in the range of 111 to 113 °C.
In the case of `Nc1ccc(Oc2ccccn2)cc1` it was 62 to 64 °C; in that of `CC(C)N1CCc2c(sc(N)c2C#N)C1`, 167 to 169 °C.
As for `O=S(=O)(c1ccc(CCl)cc1)C(F)F`, the figure is 63 to 65 °C.
In the case of `Cc1ccc(N)cc1S(=O)(=O)NC1CC1`, the melting point was in the range of 131 to 133 °C.
For `Cc1ccc(C(=O)Nc2ccc(O)cc2)cc1`, the melting point was in the range of 208 to 210 °C.
As for `COc1ccc(C)cc1-n1ccc(C(=O)O)n1`, the figure is 158 to 160 °C; as for `Cc1c(N)cccc1C(=O)N1CCOCC1`, 106 to 108 °C.
In the case of `O=C(O)c1ccc(F)c(I)c1` it was 169 to 171 °C; in that of `O=C(O)c1ccc2c(c1)C(=O)N(C1CCCCC1)C2=O`, 188 to 201 °C.
In the case of `C1CC2OC1C1CNCC21` (configuration not stated) it was 53 to 55 °C.
For the molecule `CCOC(=O)C1CCCN1S(N)(=O)=O` (configuration not stated), the melting point lay in the range of 123 to 125 °C.
As for `O=C(O)CCCNS(=O)(=O)c1ccc2c(c1)OCCO2`, the figure is 120 to 122 °C; as for `Fc1ccccc1Nc1nnc(S)s1`, 170 to 172 °C; as for `N#Cc1ccc(CO)cc1`, 39 to 43 °C.
For the molecule `Cn1c(S)nnc1C(F)F`, the melting point lay in the range of 171 to 173 °C.
